Measured values reported in the NIST ThermoML archive (doi:10.1016/j.tca.2016.05.007).

Assay: molar heat capacity at constant pressure
Conditions: 101.33 kPa, Small (less than 1 g) adiabatic calorimetry

COc1ccc(C2(c3ccc(OC)c(C)c3)OC(=O)c3ccccc32)cc1C [3,3-bis(4-methoxy-3-methylphenyl)-1(3H)-isobenzofuranone]
Conditions	molar heat capacity at constant pressure [J/K/mol]
122.17 K, Crystal	213.95
122.52 K, Glass	216.46
124.01 K, Crystal	216.41
124.36 K, Glass	219.13
125.87 K, Crystal	218.89
126.22 K, Glass	221.66
127.75 K, Crystal	221.61
128.1 K, Glass	224.36
129.65 K, Crystal	224.19
129.99 K, Glass	227.11
131.57 K, Crystal	226.74
131.9 K, Glass	229.75
133.5 K, Crystal	229.52
133.83 K, Glass	232.44
135.45 K, Crystal	232.5
135.78 K, Glass	234.99
137.41 K, Crystal	235.25
137.74 K, Glass	237.67
139.4 K, Crystal	237.93
139.72 K, Glass	240.4
141.4 K, Crystal	240.84
141.72 K, Glass	243.28
143.41 K, Crystal	243.44
143.74 K, Glass	246.09
145.45 K, Crystal	246.17
145.77 K, Glass	248.92
147.5 K, Crystal	249.06
147.82 K, Glass	251.76
149.57 K, Crystal	252.1
149.89 K, Glass	254.31
151.66 K, Crystal	254.85
151.97 K, Glass	257.37
153.77 K, Crystal	257.6
154.07 K, Glass	260.38
155.89 K, Crystal	260.26
156.2 K, Glass	263.17
158.03 K, Crystal	263.29
158.33 K, Glass	266.05
160.19 K, Crystal	265.94
160.48 K, Glass	269
162.37 K, Crystal	268.95
162.64 K, Glass	272.01
164.56 K, Crystal	271.82
164.81 K, Glass	275.02
166.77 K, Crystal	274.83
167 K, Glass	277.98
169 K, Crystal	277.76
169.19 K, Glass	280.78
171.25 K, Crystal	280.87
171.4 K, Glass	283.98
173.51 K, Crystal	283.67
173.62 K, Glass	286.89
175.79 K, Crystal	286.71
175.85 K, Glass	289.88
178.09 K, Crystal	289.96
178.09 K, Glass	293
180.35 K, Glass	296.49
180.41 K, Crystal	293.2
182.62 K, Glass	299.4
182.75 K, Crystal	296.08
184.9 K, Glass	302.23
185.1 K, Crystal	299.36
187.19 K, Glass	305.37
187.47 K, Crystal	302.25
189.49 K, Glass	308.6
189.86 K, Crystal	305.36
191.81 K, Glass	311.72
192.26 K, Crystal	308.64
194.14 K, Glass	314.93
194.69 K, Crystal	311.89
196.48 K, Glass	318.26
197.13 K, Crystal	315.34
198.84 K, Glass	321.49
199.32 K, Crystal	317.71
201.2 K, Glass	324.99
201.85 K, Crystal	321.03
203.58 K, Glass	328.08
204.39 K, Crystal	324.18
205.97 K, Glass	331.65
206.95 K, Crystal	328.02
208.37 K, Glass	334.98
209.51 K, Crystal	331.38
210.79 K, Glass	338.72
212.09 K, Crystal	334.57
213.22 K, Glass	342.02
214.68 K, Crystal	337.96
215.66 K, Glass	345.52
217.29 K, Crystal	341.78
218.12 K, Glass	349.05
219.9 K, Crystal	345.52
220.58 K, Glass	352.67
222.52 K, Crystal	348.92
223.06 K, Glass	355.96
225.16 K, Crystal	352.6
225.55 K, Glass	359.74
227.81 K, Crystal	355.97
228.02 K, Glass	362.84
230.46 K, Glass	366.31
230.47 K, Crystal	359.41
232.95 K, Glass	369.75
233.14 K, Crystal	362.97
235.43 K, Glass	373.33
235.82 K, Crystal	366.8
237.94 K, Glass	377.18
238.52 K, Crystal	370.5
240.46 K, Glass	380.87
241.23 K, Crystal	373.97
243.01 K, Glass	384.18
243.95 K, Crystal	377.59
245.58 K, Glass	387.76
246.68 K, Crystal	381.22
248.17 K, Glass	391.43
249.42 K, Crystal	384.68
250.78 K, Glass	395.34
252.17 K, Crystal	388.51
253.42 K, Glass	399.08
254.94 K, Crystal	392.35
256.07 K, Glass	402.8
257.72 K, Crystal	395.86
258.74 K, Glass	406.86
260.51 K, Crystal	399.92
261.44 K, Glass	410.9
263.31 K, Crystal	403.6
264.16 K, Glass	414.85
266.12 K, Crystal	407.84
266.89 K, Glass	419.34
268.94 K, Crystal	412.03
269.65 K, Glass	423.9
271.78 K, Crystal	417
272.43 K, Glass	428.57
274.62 K, Crystal	419.54
275.22 K, Glass	431.8
277.48 K, Crystal	423.7
278.04 K, Glass	436.42
280.36 K, Crystal	427.79
280.88 K, Glass	440.97
282.95 K, Crystal	430.44
283.74 K, Glass	445.62
285.84 K, Crystal	434.94
286.62 K, Glass	450.63
288.75 K, Crystal	438.86
289.52 K, Glass	455.31
291.64 K, Crystal	442.83
292.44 K, Glass	460.3
294.51 K, Crystal	446.52
295.38 K, Glass	465.32
297.4 K, Crystal	449.56
298.34 K, Glass	470.91
301.33 K, Glass	473.58
303.26 K, Crystal	457.78
304.32 K, Glass	491.69
306.21 K, Crystal	461.74
307.3 K, Glass	525.07
309.18 K, Crystal	465.91
310.26 K, Glass	604.32
312.18 K, Crystal	470.02
313.23 K, Glass	614.14
315.19 K, Crystal	474.07
316.23 K, Metastable liquid	622.32
318.23 K, Crystal	478.43
319.25 K, Metastable liquid	625.96
321.28 K, Crystal	482.81
322.29 K, Metastable liquid	629.84
324.35 K, Crystal	487.1
325.35 K, Metastable liquid	633.32
327.44 K, Crystal	491.54
328.43 K, Metastable liquid	636.56
330.55 K, Crystal	495.88
331.52 K, Metastable liquid	639.81
333.68 K, Crystal	500.17
334.64 K, Metastable liquid	642.98
336.81 K, Crystal	504.57
337.78 K, Metastable liquid	646.52
339.94 K, Crystal	508.36
340.93 K, Metastable liquid	649.55
343.08 K, Crystal	512.55
344.11 K, Metastable liquid	652.75
346.25 K, Crystal	517.45
347.3 K, Metastable liquid	656.04
349.43 K, Crystal	521.7
350.51 K, Metastable liquid	659.31
352.63 K, Crystal	525.97
353.74 K, Metastable liquid	662.1
355.85 K, Crystal	530.55
356.97 K, Metastable liquid	665.61
359.09 K, Crystal	535.23
360.22 K, Metastable liquid	669.03
362.34 K, Crystal	540.42
363.49 K, Metastable liquid	672.55
365.61 K, Crystal	545.96
366.77 K, Metastable liquid	676.27
368.9 K, Crystal	551.67
370.07 K, Metastable liquid	680.12
372.2 K, Crystal	556.9
